The IC50 is the concentration at which inhibition is half-maximal.

The test system of one assay is Calu-1 cells. Kind of assay: Anti-proliferation (viability) of NSCLC Calu-1 cells, 3 days (Table 7, FIG. 2B). It counts as cell-based. As to conditions: Homo sapiens, 72 h; Calu-1 cells, 3 days, 10-point serial dilution; read-out: GI IC50 in Calu-1. In short, it runs like this:
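Cells treated with heterobifunctional compounds in 10-point serial dilution, then viability measured; Calu-1 NSCLC cells exposed for 3 days, ER+ T47D breast cancer cells for 6 days.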

A further assay relates to MCF7 cells. The experiment in a line: Anti-proliferation (viability) of MCF7 cells (Table 7, FIG. 2B). It counts as cell-based. The settings on record: Homo sapiens, MCF7, MCF7 cells, 3-6 days, 10-point serial dilution; read-out: GI IC50 in MCF-7.

For `CC(=O)c1c(C)c2cnc(Nc3ccc(N4CCN(C(=O)NC5CC(Nc6nc(NC(C)C)ccc6C(=O)Nc6cn(C)c(C7CC7)n6)C5)CC4)cn3)nc2n(C2CCCC2)c1=O` (stereo not drawn) [CPD-289, 4-(6-((6-acetyl-8-cyclopentyl-5-methyl-7-oxo-7,8-dihydropyrido[2,3-d]pyrimidin-2-yl)amino)pyridin-3-yl)-N-(3-((3-((2-cyclopropyl-1-methyl-1H-imidazol-4-yl)carbamoyl)-6-(isopropylamino)pyridin-2-yl)amino)cyclobutyl)piperazine-1-carboxamide], the IC50 in the assay on Calu-1 cells was at least 50 nM; in the assay on MCF7 cells, above 100 nM.

As to `CC(=O)c1c(C)c2cnc(Nc3ccc(N4CCC(N5CCC[C@H]5C(=O)NCC5CC(Nc6nc(NC(C)C)ccc6C(=O)Nc6ccc(N(C)C)nn6)C5)CC4)cn3)nc2n(C2CCCC2)c1=O` (stereo partly drawn) [CPD-542, (S)-2-((3-((1-(1-(6-((6-acetyl-8-cyclopentyl-5-methyl-7-oxo-7,8-dihydropyrido[2,3-d]pyrimidin-2-yl)amino)pyridin-3-yl)piperidin-4-yl)pyrrolidine-2-carboxamido)methyl)cyclobutyl)amino)-N-(6-(dimethylamino)pyridazin-3-yl)-6-(isopropylamino)nicotinamide], the IC50 was at most 10 nM with Calu-1 cells and above 100 nM in the assay on MCF7 cells.

In the case of `CCc1ccc(C(=O)Nc2ccc(N(C)C)nn2)c(N[C@H]2CC[C@H](C(=O)N3CCC(N4CCN(c5ccc(Nc6ncc7c(C)c(C(C)=O)c(=O)n(C8CCCC8)c7n6)nc5)CC4)C3)CC2)c1` (stereo partly drawn) [CPD-526, 2-((trans-4-(3-(4-(6-((6-acetyl-8-cyclopentyl-5-methyl-7-oxo-7,8-dihydropyrido[2,3-d]pyrimidin-2-yl)amino)pyridin-3-yl)piperazin-1-yl)pyrrolidine-1-carbonyl)cyclohexyl)amino)-N-(6-(dimethylamino)pyridazin-3-yl)-4-ethylbenzamide], the IC50 with Calu-1 cells was at most 10 nM; in the assay with MCF7 cells it was below 50 nM.

`CC(=O)c1cc2cnc(Nc3ccc(N4CCN(C5CCN(C(=O)[C@H]6CC[C@H](Nc7nc(NC(C)C)ccc7C(=O)Nc7ccc(N(C)C)nn7)CC6)C5)CC4)cn3)nc2n(C2CCCC2)c1=O` (stereo partly drawn) [CPD-560, 2-((trans-4-(3-(4-(6-((6-acetyl-8-cyclopentyl-7-oxo-7,8-dihydropyrido[2,3-d]pyrimidin-2-yl)amino)pyridin-3-yl)piperazin-1-yl)pyrrolidine-1-carbonyl)cyclohexyl)amino)-N-(6-(dimethylamino)pyridazin-3-yl)-6-(isopropylamino)nicotinamide]: the figures for the IC50 in the assay on Calu-1 cells and with MCF7 cells were at most 10 nM and above 100 nM, respectively.

Regarding `CC(=O)c1c(C)c2cnc(Nc3ccc(N4CCN(C5CCN(C(=O)N6CC7(CCC(Nc8nc(NC(C)C)ccc8C(=O)Nc8ccc(N(C)C)nn8)C7)C6)C5)CC4)cn3)nc2n(C2CCCC2)c1=O` (stereo not drawn) [CPD-545, 2-((2-(3-(4-(6-((6-acetyl-8-cyclopentyl-5-methyl-7-oxo-7,8-dihydropyrido[2,3-d]pyrimidin-2-yl)amino)pyridin-3-yl)piperazin-1-yl)pyrrolidine-1-carbonyl)-2-azaspiro[3.4]octan-6-yl)amino)-N-(6-(dimethylamino)pyridazin-3-yl)-6-(isopropylamino)nicotinamide], the IC50 in the assay on Calu-1 cells is 10 to 50 nM; with MCF7 cells, above 100 nM.

Regarding `[2H]C([2H])([2H])Nc1ccc(C(=O)Nc2cn(C)c(C3CC3)n2)c(NC[C@H]2CC[C@H](NC(=O)CN3CCN(c4ccc(Nc5ncc6c(C)c(C(C)=O)c(=O)n(C7CCCC7)c6n5)nc4)CC3)CC2)n1` [CPD-276, 2-(((trans-4-(2-(4-(6-((6-acetyl-8-cyclopentyl-5-methyl-7-oxo-7,8-dihydropyrido[2,3-d]pyrimidin-2-yl)amino)pyridin-3-yl)piperazin-1-yl)acetamido)cyclohexyl)methyl)amino)-N-(2-cyclopropyl-1-methyl-1H-imidazol-4-yl)-6-((methyl-d3)amino)nicotinamide], the results for the IC50 with Calu-1 cells and in the assay on MCF7 cells were at least 50 nM and above 100 nM, respectively.

For the compound `[2H]C([2H])([2H])Nc1ccc(C(=O)Nc2ccc(N(C)C)nn2)c(NC2CCN(C(=O)CN(C)C3CCN(c4ccc(Nc5ncc6c(C)c(C(C)=O)c(=O)n(C7CCCC7)c6n5)nc4)CC3)CC2)n1` [CPD-463, 2-((1-(N-(1-(6-((6-acetyl-8-cyclopentyl-5-methyl-7-oxo-7,8-dihydropyrido[2,3-d]pyrimidin-2-yl)amino)pyridin-3-yl)piperidin-4-yl)-N-methylglycyl)piperidin-4-yl)amino)-N-(6-(dimethylamino)pyridazin-3-yl)-6-((methyl-d3)amino)nicotinamide], the half-inhibitory concentration (IC50) is at most 10 nM in the assay with Calu-1 cells and below 50 nM with MCF7 cells.

`CNc1ccc(C(=O)Nc2ccc(N(C)C)nn2)c(NC2CCC(CNC(=O)CN3CCN(c4ccc(Nc5ncc6c(C)c(C(C)=O)c(=O)n(C7CCCC7)c6n5)nc4)CC3)C2)n1` (stereo not drawn) [CPD-271, 2-((3-((2-(4-(6-((6-acetyl-8-cyclopentyl-5-methyl-7-oxo-7,8-dihydropyrido[2,3-d]pyrimidin-2-yl)amino)pyridin-3-yl)piperazin-1-yl)acetamido)methyl)cyclopentyl)amino)-N-(6-(dimethylamino)pyridazin-3-yl)-6-(methylamino)nicotinamide]: the IC50 is at least 50 nM in the assay with Calu-1 cells and above 100 nM in the assay with MCF7 cells.

As for `CC(=O)c1c(C)c2cnc(Nc3ccc(N4CCN(CC(=O)NC5CC6(C5)CC(Nc5nc(NC(C)C)ccc5C(=O)Nc5ccc(N(C)C)nn5)C6)CC4)cn3)nc2n(C2CCCC2)c1=O` (stereo not drawn) [CPD-272, 2-((6-(2-(4-(6-((6-acetyl-8-cyclopentyl-5-methyl-7-oxo-7,8-dihydropyrido[2,3-d]pyrimidin-2-yl)amino)pyridin-3-yl)piperazin-1-yl)acetamido)spiro[3.3]heptan-2-yl)amino)-N-(6-(dimethylamino)pyridazin-3-yl)-6-(isopropylamino)nicotinamide], the IC50 with Calu-1 cells is at most 10 nM; with MCF7 cells, below 50 nM.

Consider `CC(=O)c1c(C)c2cnc(Nc3ccc(CN4CCC(NC(=O)C5CC6(CC(Nc7nc(NC(C)C)ccc7C(=O)Nc7ccc(N(C)C)nn7)C6)C5)CC4)cn3)nc2n(C2CCCC2)c1=O` (stereo not drawn) [CPD-486, 2-((6-((1-((6-((6-acetyl-8-cyclopentyl-5-methyl-7-oxo-7,8-dihydropyrido[2,3-d]pyrimidin-2-yl)amino)pyridin-3-yl)methyl)piperidin-4-yl)carbamoyl)spiro[3.3]heptan-2-yl)amino)-N-(6-(dimethylamino)pyridazin-3-yl)-6-(isopropylamino)nicotinamide], for which the IC50 is at most 10 nM in the assay on Calu-1 cells and below 50 nM with MCF7 cells.

Regarding `CC(=O)c1c(C)c2cnc(Nc3ccc(N4CCN(C5CCN(C(=O)[C@H]6CC[C@H](Nc7nc(NC(C)C)ccc7-c7nc8ccc(N(C)C)nc8[nH]7)CC6)C5)CC4)cn3)nc2n(C2CCCC2)c1=O` (relative stereo) [CPD-546, trans-6-acetyl-8-cyclopentyl-2-((5-(4-(1-(4-((3-(5-(dimethylamino)-3H-imidazo[4,5-b]pyridin-2-yl)-6-(isopropylamino)pyridin-2-yl)amino)cyclohexane-1-carbonyl)pyrrolidin-3-yl)piperazin-1-yl)pyridin-2-yl)amino)-5-methylpyrido[2,3-d]pyrimidin-7(8H)-one], the IC50 in the assay on Calu-1 cells is at most 10 nM; with MCF7 cells, below 50 nM.

For the compound `CC(=O)c1c(C)c2cnc(Nc3ccc(N4CCN(C5CCN(C(=O)[C@H]6CC[C@H](Nc7nc(NC(C)C)ccc7C(=O)Nc7cn8c(n7)CCC8)CC6)C5)CC4)cn3)nc2n(C2CCCC2)c1=O` (stereo partly drawn) [CPD-568, 2-((trans-4-(3-(4-(6-((6-acetyl-8-cyclopentyl-5-methyl-7-oxo-7,8-dihydropyrido[2,3-d]pyrimidin-2-yl)amino)pyridin-3-yl)piperazin-1-yl)pyrrolidine-1-carbonyl)cyclohexyl)amino)-N-(6,7-dihydro-5H-pyrrolo[1,2-a]imidazol-2-yl)-6-(isopropylamino)nicotinamide], the figures for the half-inhibitory concentration (IC50) in the assay with Calu-1 cells and in the assay on MCF7 cells were at most 10 nM and above 100 nM, respectively.

On to `CC(=O)c1c(C)c2cnc(Nc3ccc(N4CCN(C5CCN(C(=O)[C@H]6CC[C@H](Nc7cc(C(C)C)ccc7C(=O)Nc7ccc(N(C)C)nn7)CC6)C5)CC4)cn3)nc2n(C2CCCC2)c1=O` (stereo partly drawn) [CPD-528, 2-((trans-4-(3-(4-(6-((6-acetyl-8-cyclopentyl-5-methyl-7-oxo-7,8-dihydropyrido[2,3-d]pyrimidin-2-yl)amino)pyridin-3-yl)piperazin-1-yl)pyrrolidine-1-carbonyl)cyclohexyl)amino)-N-(6-(dimethylamino)pyridazin-3-yl)-4-isopropylbenzamide], for which the IC50 was at most 10 nM with Calu-1 cells and below 50 nM with MCF7 cells.

Take `CC(=O)c1c(C)c2cnc(Nc3ccc(CN4CCN(CC(=O)N5CCC(Nc6nc(NC(C)C)ccc6C(=O)Nc6cc7n(n6)CCC7)CC5)CC4)cn3)nc2n(C2CCCC2)c1=O` [CPD-530, 2-((1-(2-(4-((6-((6-acetyl-8-cyclopentyl-5-methyl-7-oxo-7,8-dihydropyrido[2,3-d]pyrimidin-2-yl)amino)pyridin-3-yl)methyl)piperazin-1-yl)acetyl)piperidin-4-yl)amino)-N-(5,6-dihydro-4H-pyrrolo[1,2-b]pyrazol-2-yl)-6-(isopropylamino)nicotinamide]: the IC50 with Calu-1 cells was 10 to 50 nM; in the assay with MCF7 cells it was above 100 nM.

Regarding `CC(=O)c1c(C)c2cnc(Nc3ccc(N4CCN(CCC(=O)N5CCC(Nc6nc(NC(C)C)ccc6C(=O)Nc6cn(C)c(C7CC7)n6)C5)CC4)cn3)nc2n(C2CCCC2)c1=O` (stereo not drawn) [CPD-274, 2-((1-(3-(4-(6-((6-acetyl-8-cyclopentyl-5-methyl-7-oxo-7,8-dihydropyrido[2,3-d]pyrimidin-2-yl)amino)pyridin-3-yl)piperazin-1-yl)propanoyl)pyrrolidin-3-yl)amino)-N-(2-cyclopropyl-1-methyl-1H-imidazol-4-yl)-6-(isopropylamino)nicotinamide], the IC50 with Calu-1 cells is 10 to 50 nM; with MCF7 cells, above 100 nM.

Values taken from patent US20260297081A1, “COMPOUNDS AND METHODS OF TREATING CANCERS” (Cullgen Inc., priority 2023, published 2026).
